{
  "source": "paper PMC9225265",
  "about": "“Functional Analysis of the Plasma Membrane H^+-ATPases of Ustilago maydis” (Journal of Fungi, 2022)",
  "test_system": "T1, plasma membrane H+-ATPases of wild-type FB2 (Pma1 and Pma2)",
  "T1 construct": "native enzymes in isolated plasma membrane fraction of wild-type sporidia; both pumps present; vanadate-sensitive ATPase activity",
  "assay": "Pi release (Fiske-Subbarow), vanadate-sensitive ATPase activity of plasma membrane fraction, Michaelis-Menten fit",
  "assay_type": "biochemical, Mycosarcoma maydis",
  "settings": "MES pH 6.5, 5 mM MgCl2, 30 °C, ATP regenerating system (phosphoenolpyruvate / pyruvate kinase), NaN3, KNO3, Pma1 and Pma2 together, rounded value for all strains, exact value in figure",
  "data": [
    {"molecule": "Nc1ncnc2c1ncn2[C@@H]1O[C@H](COP(=O)(O)OP(=O)(O)OP(=O)(O)O)[C@@H](O)[C@H]1O", "note": "[Mg-ATP]", "values": [
      {"measurement": "Km", "value": "~2000", "unit": "µM"}
    ]}
  ]
}
